Measured values from publication PMC9365693 (Nature, 2022).
Where “and” joins values, the source holds several entries; their conditions need not be identical. Identical values can stand only once. Entries after “also recorded” stand apart in the source; their conditions may differ.

Experiments:
[1] = Confocal microscopy of GUVs doped with Atto 550-labelled lipid II; settings: DOPC GUVs with 0.1 mol% Atto 550-lipid II, 1 μM teixobactin, 3 h; biological triplicates
Method: We used a self-assembled GUV cell, aligned with two titanium electrodes in a closed Teflon chamber (volume = 500 μl). Of 0.5 mM DOPC doped with Atto 550-labelled lipid II (0.1 mol%), 1 μl was brushed on the titanium electrodes. The GUV cell was dried under vacuum. Next, the chamber was filled with 350 μl 0.1 M sucrose solution, the electrodes dipped in and connected to a power supply of a sine wave (2.5 V; 10 Hz; 90 min). Each microscopy slide (m-slide 8 well, Ibidi) was incubated with 350 μl BSA solution (1 mg ml^−1) for 1 h. To detach the GUVs, the power supply was changed to square wave (2 V; 2 Hz; 15 min). The slides were washed once with water and 0.1 M glucose solution. The slides were immersed in 300 μl of 0.1 M glucose solution to which 50 μl of GUVs was added. […] GUVs were imaged using Zeiss LSM 880 with ×63/1.2 NA glycerol and ×100/1.2 NA oil objective lenses. The Atto 550 label appeared red upon excitation by the 560-nm laser. The brightfield was used for detection and location of the GUVs and to observe their shape. Zeiss Zen Black software was used for the analysis of the images.

[2] = HS-AFM of teixobactin–lipid II fibrils on supported lipid bilayer
Method: (§1) The HS-AFM images were acquired in amplitude modulation tapping mode in liquid using a high-speed atomic force microscope (RIBM). Short cantilevers (approximately 7 μm) with a nominal spring constant of 0.15 N m^−1 were used (USC-F1.2-k0.15, NanoWorld). A minimal imaging force was applied by using a small set-point amplitude of 0.8 nm (for a 1 nm free amplitude). […] The lipid bilayer was obtained by incubating LUVs containing DOPC and lipid II (prepared as mentioned above) on top of a freshly cleaved mica for 20–30 min. […] Imaging was started on the lipid bilayer surface in recording buffer. […] Images were primarily processed using built-in scripts (RIBM) in Igor Pro (Wavemetrics) and analysed using ImageJ software. The images or videos were corrected minimally for tilt, drift and contrast. […] Image acquisition rate varies from 0.5 frames per second to 2 frames per seconds (see Fig. 2, Extended Data Figs. 5, 6, or legends of Supplementary Videos 1 and 2), and the line rate varies from 150 lines per second to 400 lines per second. […] Stated errors are standard deviation.

[3] = HS-AFM control experiments (membrane height; bilayers without lipid II); set-up: membrane height: unit not given here; settings: for membrane height: source data Ext. Data Fig. 6, DOPC + 1% lipid II, after 30 mins incubation with 800 nM
Method: as §1
Extended Data Fig. 6 HS-AFM control experiments. […] Source data

[4] = tested on: Staphylococcus simulans; assay: DiSC membrane depolarization (ion leakage) assay, S. simulans; assay type: cell-based; settings: DiSC-2 probe, Gram-positive bacteria (Fig. 4h and Extended Data Fig. 10b,c), 20 °C, pH 7.2, 2 min before and 6 min after antibiotic; triplicates
Method: (§2) The bacterial cultures were grown overnight at 30 °C in TSB media for S. simulans and at 37 °C in LB medium for Bacillus subtilis. Secondary cultures were grown for 3 h until OD600 = 0.5 was reached. The bacterial cells were then centrifuged at 1,500g for 10 min at 4 °C and washed twice with 10 ml of buffer (10 mM Tris, 100 mM NaCl, 1 mM MgCl2 and 0.5% glucose, pH 7.2). The bacterial cells were resuspended to an OD600 = 10 in the buffer and used for the experiment. […] For the assay, 1 μl of the bacterial suspension was added to 1 ml of buffer. For the ion leakage assays, 1 μl of the DiSC-2 probe from a 1 mM stock was added to the cuvette and the fluorescence was measured between a wavelength of 650 nm and 670 nm (bandwidth of […]) for 2 min before the addition of the antibiotic and 6 min after. For the Sytox green leakage assays, 1 μl of the Sytox green probe from a 0.25 mM stock was added to the cuvette and the fluorescence was measured between a wavelength of 500 nm and 520 nm (bandwidth of […]) for 2 min before the addition of the antibiotic and 6 min after. All experiments were performed in triplicates.

[5] = tested on: B. subtilis; assay: MIC, B. subtilis (given with permeabilization assay concentrations); assay type: cell-based, Bacillus subtilis
Method: as §2

[6] = Intermolecular teixobactin–teixobactin ssNMR contacts (2D 13C13C); settings: 2D 13C13C ssNMR, 600 ms transfer, lipid II-bound
Description: T1rho trajectories were fit to single exponentials.
Solid-state NMR ^13C-^13C PARISxy spectra of the ^13C,^15N-teixobactin – Lipid II complex in membranes show several cross-peaks (in red) that cannot be intramolecular contacts because this would require magnetization transfer over more than 10 Å. Rather, these cross-peaks correspond to intermolecular contacts between different teixobactin molecules and agree with the formation of antiparallel β-sheets.

[7] = tested on: Gram-positive pathogens; settings: cited from earlier work
Method: Antibiotics that use novel mechanisms are needed to combat antimicrobial resistance[1]–[3]. […] Here we unravel the mechanism of teixobactin at the atomic level using a combination of solid-state NMR, microscopy, in vivo assays and molecular dynamics simulations. […] (Fig. 4h and Extended Data Fig. 10b,c).

[8] = Pyrene-labelled lipid II excimer fluorescence (oligomerization); settings: DOPC LUVs with 0.5 mol% pyrene-lipid II, 10 mM Tris-Cl 100 mM NaCl pH 8.0, 20 °C

Substance: teixobactin
- GUV oligomerization and membrane perturbation (in words) [1]: formation of micron-sized teixobactin–lipid II oligomers; also recorded: pronounced concave membrane perturbations at the oligomerization sites
- depth of fibrillar sheets below the membrane surface (membrane thinning) ([2]; 50 min after 800 nM teixobactin): approximately 0.5 nm
- height of fibrils on the membrane surface ([2]; DOPC bilayer with lipid II, 10 mM Tris-Cl 100 mM NaCl pH 8.0, error is standard deviation): 0.8 ± 0.1 nm
- peak-to-peak distance between fibrils in sheets ([2]; after the fibrils have descended into the surface): ~ 8 nm
- formation of fibrils (in words) ([2]; lipid II-doped bilayer): Fibrils were solely observed in the presence of both teixobactin and lipid II; also recorded: fibrils solely form in the presence of both teixobactin and Lipid II
- HS-AFM control result (in words) ([3]; membrane height at positions without fibrils, 30 min after teixobactin): membrane height at positions without fibrils remains unaltered
- membrane height ([3]; individual measurement, one line each): 4.81 and 4.99 and 5.22 and 4.65 and 4.79 and 5.05 and 5.1 and 4.77 and 4.67 and 5.01 and 4.5 and 4.97 and 4.95 and 5 and 4.87 and 4.68 and 4.96 and 4.63 and 4.88 and 4.89 and 4.9 and 5.12 and 4.8
- membrane height ([3]; mean): 4.873
- decrease in membrane potential / depolarization (in words) [4]: sharp decrease in the membrane potential
- concentration stated as 10× MIC [5]: 0.2 µM
- antiparallel β-sheet formation (in words) [6]: strongly supports that natural teixobactin also forms antiparallel β-sheets
- antibacterial activity (in words) ([7]; MRSA, S. pneumoniae, vancomycin-resistant Enterococci): broad activity against multidrug-resistant Gram-positive pathogens
- bacterial killing compared with vancomycin (in words) [7]: more effective in killing bacteria than vancomycin
- resistance (in words) [7]: lack of resistance
- oligomerization by pyrene-tagged lipid II (in words) [8]: with the increase in teixobactin concentration there is a relative decrease in the monomer signal followed by a respective increase in the excimer signal; also recorded: oligomers form immediately after the addition of teixobactin
